Structures can show the parent of a compound that is named as a salt. Where two headings read alike, the source gives them in different places.
Assays:
HuH7 = assay: MTT anti-proliferation assay, HuH7; type: cell-based, human; settings: 72 h, read-out: IC50 ± SD HuH7
[1] = Thermodynamic solubility in water (HPLC); type: physicochemical; settings: for Solubility, equivalent molar concentration: water
Description: The thermodynamic solubility of N53·HCl in water was determined by high-performance liquid chromatography (Waterage, Alliance HPLC E2695, United States). The HPLC mobile phases were water (0.1% formic acid) and methanol separated by gradient chromatography at 0.5 mL/min. The chromatographic conditions were followed. Mobile phase: methanol: H2O = 10:90; 15 min; wavelength: 254 nm; temperature: 25°C. N53 and N53·HCl were dissolved in methanol to form a gradient concentration standard solution (0.32, 1.6, 8, 40, 200 and 1,000 μg/mL). The standard solutions were scanned at 254 nm and the absorption area was recorded against the concentration curve. Saturated solutions of the compounds were prepared by magnetic stirring at 37°C for 4 h in deionized water in small volumes and the solid compounds were removed using Millipore 0.45 μm filters. The saturated solution was then scanned at 254 nm. The thermodynamic solubility in water was calculated from the absorption area and curve.

SK-Hep-1 = assay: MTT anti-proliferation assay, SK-Hep-1; type: cell-based, human; settings: read-out: IC50 ± SD SK-Hep-1
RKO = assay: MTT anti-proliferation assay, RKO; type: cell-based, human; settings: 72 h, read-out: IC50 ± SD RKO
Description: The anti-proliferation activities of synthesized compounds to colon cancer cell lines were measured by the MTT (3-[4,5-dimethyl-2-thiazolyl]-2,5-diphenyl-2H-tet razolium bromide) assay. First, the cell suspension was prepared by trypsin and the corresponding medium, cells were diluted to 5 × 10^5 cells/mL, and 96-well plates were added 200 μL per well. The plates were maintained at 37°C in a humidified atmosphere containing 5% CO2 overnight. Then compounds at gradient concentrations were added to cells in the logarithmic phase to make the final concentration at 0.5, 1, 2, 4, 8, 16, and 32 μM. The cells were treated with tested compounds for 72 h, and the growth curve assay was tested in 24 h. When the time was up, 20 μL of MTT solution (5 mg/mL in PBS) was added into each well to incubate for 4 h at 37°C. Then the supernatant liquid was removed, 150 μL DMSO was added into every well to dissolve formazan crystals and read the absorbance at 570 nm by Spark microplate spectrophotometer (Tecan, Swiss). The IC50 values were analyzed by IBM SPASS Statistics 25.0 software. The data are all derived from three parallel experiments (n = 3) and expressed as mean ± SD.

HT29 xenograft = assay: HT29 nude xenograft model; type: in vivo, BALB/c nude mice; settings: 15 mg/kg once a day p.o., 13 days
Description: HT29 cells in the logarithmic growth phase were digested to a cell density of 8 × 10^6/mL, and 100 μL suspension of HT29 was injected subcutaneously in the right axilla of nude mice. The dose selection is based on previously described ([Xiaoling Hu et al., 2022]). When the average tumor volume reached about 300 mm^3, they were randomly divided into 3 groups: N53·HCl (15 mg/kg once a day, p.o.), N53 (15 mg/kg once a day, p.o.), control group. 15 mg/kg N53 and N53·HCl dissolved in normal saline containing 2.5% polyoxyethylene castor oil and 2.5% DMSO were administrated by oral medications, while the Control group was given an equal volume of blank solvent. The tumor volume was measured with a vernier caliper every other days and calculated the tumor volume according to Equation 1. After 13 days of treatment, the mice were sacrificed, the tumors were removed, the tumor weight was weighed, and the tumor growth inhibition rate was calculated. The calculation formula of tumor growth inhibition rate (TGI%) was calculated using Equation 2. The corresponding equations were as follows: Tumor volume mm^3=W^2×L/2 (1) TGI%=1−T−T0 / C−C0×100% (2)
In equations, W and L represent the width and length of the tumor respectively, T and C represent the average volume of the experiment group and control group at the end of the experiment. T0 and C0 represent […].

Topo I = target: T1, Topo I (Bos taurus, UniProt F1MN93); assay: Topo I-mediated DNA relaxation assay; type: biochemical; settings: relaxation of supercoiled pBR322
T1 construct: purchased Takara Biotechnology, Dalian, China
T1 sequence (F1MN93 1-767): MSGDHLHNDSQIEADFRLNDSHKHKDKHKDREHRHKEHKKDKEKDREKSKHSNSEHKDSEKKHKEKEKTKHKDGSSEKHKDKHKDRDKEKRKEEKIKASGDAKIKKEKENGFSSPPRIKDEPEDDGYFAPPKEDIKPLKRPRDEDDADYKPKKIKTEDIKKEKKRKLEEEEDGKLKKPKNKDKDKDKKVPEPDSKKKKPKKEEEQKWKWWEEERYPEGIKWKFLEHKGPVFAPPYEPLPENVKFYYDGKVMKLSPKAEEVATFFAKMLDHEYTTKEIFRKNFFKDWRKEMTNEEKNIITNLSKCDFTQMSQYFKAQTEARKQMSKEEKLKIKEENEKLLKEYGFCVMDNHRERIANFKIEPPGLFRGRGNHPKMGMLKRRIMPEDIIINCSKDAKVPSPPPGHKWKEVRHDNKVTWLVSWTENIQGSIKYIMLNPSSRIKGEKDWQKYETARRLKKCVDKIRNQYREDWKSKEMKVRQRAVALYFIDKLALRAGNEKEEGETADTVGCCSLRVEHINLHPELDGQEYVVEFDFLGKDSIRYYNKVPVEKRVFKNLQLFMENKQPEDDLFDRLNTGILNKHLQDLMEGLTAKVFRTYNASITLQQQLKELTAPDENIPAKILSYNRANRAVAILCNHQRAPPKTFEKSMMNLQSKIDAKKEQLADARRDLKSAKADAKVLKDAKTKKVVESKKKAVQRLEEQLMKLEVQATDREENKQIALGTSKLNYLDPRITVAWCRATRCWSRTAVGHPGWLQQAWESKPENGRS
Description: In brief, 2 μL Topo I Assay Buffer, 2 μL 0.1% BSA solution, 1 μL 1 U/μL Topo I solution, 0.2 μL test compound solution, and 0.5 μL DNA solution (0.25 μg) were added orderly with the corresponding volume of ultrapure water to make the above system volume 20 μL (Takara Biotechnology, Dalian, China). The above system was incubated at 37°C, the incubation continued for 45 min, and then 10 μL of a mixture of equal phenol and chloroform organic solvent was added for extraction to terminate the reaction. The aqueous phase was separated by centrifugation, the corresponding volume of 6 × DNA loading buffer was added, and then 0.8% agarose gel and 1 × TAE electrophoresis solution were used for electrophoresis at 110 V for 1 h. After electrophoresis, the gel was placed in a 0.5 μg/mL of ethidium bromide (EB) solution for 30 min, then recorded and photographed at 302 nm wavelength.

Row | Structure (SMILES) | IC50 (HuH7) [µM] | Solubility, equivalent molar concentration [1] [µM] | IC50 (SK-Hep-1; 72 h) [µM] | IC50 (RKO) [µM] | Body weight versus control group (HT29 xenograft) | Tumor inhibition rate (TGI) (HT29 xenograft) [%] | Inhibition rate (%) of Topo I (100 μM) (Topo I) [%] | solubility at 4 h ([1]; deionized water, thermodynamic, 37°C, 4 h) [µg/mL] | Water solubility ([1]; thermodynamic, deionized water, 37°C, 4 h) [µg/mL] | IC50 (SK-Hep-1; Homo sapiens, SK-HEP1, 72 h) [µM] | IC50 (RKO; Homo sapiens, RKO) [µM]
1 | Cc1c(Cl)cccc1Nc1ccccc1C(=O)Nc1ccc(N2CCN(C)CC2)cc1 [Compound N53, 2-((3-chloro-2-methylphenyl)amino)-N-(4-(4-methylp-iperazin-1-yl)phenyl)benzamide] | 3.67 ± 0.38 | < 0.74 | 5.66 ± 0.47 | 6.29 ± 0.54 | no significant difference in body weight | 34.7 | 11.7 |  |  |  | 
2 | Cc1c(Cl)cccc1Nc1ccccc1C(=O)Nc1ccc(N2CCN(C)CC2)cc1 [N53·HCl, 4-(4-(2-((3-chloro-2-methylphenyl)amino)ben-zamido)phenyl)-1-methylpiperazin-1-ium] | 11.7 ± 0.75 | 1150 |  |  | no significant difference in body weight | 53.7 | 55.1 | 540 | 540 | 8.18 | 7.99 ± 0.85
